We go through 6 compounds from US20080207683A1, “BIARYL-S[…]-PYRAZOLO-PYRIDINE MODULATORS OF CATHEPSIN S” (priority 2007, published 2008).

T1 sequence (P25774 115-331): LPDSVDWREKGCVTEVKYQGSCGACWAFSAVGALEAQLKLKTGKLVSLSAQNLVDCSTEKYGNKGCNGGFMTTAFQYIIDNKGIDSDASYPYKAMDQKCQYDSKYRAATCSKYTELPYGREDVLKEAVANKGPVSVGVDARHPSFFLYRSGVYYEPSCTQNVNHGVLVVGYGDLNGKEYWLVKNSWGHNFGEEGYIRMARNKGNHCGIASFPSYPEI

The assay concerns the target T1, Human CatS (Homo sapiens, UniProt P25774).
T1 construct: made in house; host or cells: Sf9 insect cells (baculovirus vector pFB+HT)
The experiment in a line: CatS inhibition of hydrolysis of fluorescent substrate Z-Val-Val-Arg-AFC. The conditions noted are these: apparent Ki, Morrison equation fit of initial rates; 10 μM Z-Val-Val-Arg-AFC, pH 5.0, 1.5 nM CatS; read-out: CatS Ki^app. The assay is classed as biochemical. As for the experimental part: Human CatS was cloned into pFB+HT (from Stratagene clone), expressed in Sf9 cells, and purified over a Ni column. Fractions were concentrated and activated at pH 4.0 for 6 hr and then purified over a thiopropylsepharose column and eluted with 1×TBS, 500 mM NaCl, 1 mM EDTA, 25 mM DTT pH 7.6. Glycerol (50%) was added in a 1:1 (vol/vol) ratio (25% glycerol final) and protein was stored at −80° C. in 5 μL aliquots. […] The increase in fluorescence over time was monitored using λexcitation=400 nm and λemission=505 nm.
In equation 1, v is the initial rate measured in the presence of [I]0, the inhibitor concentration, using an enzyme concentration [E]0. v0 is the initial rate measured in the absence of inhibitor.
For the compound `CS(=O)(=O)N1CCc2c(c(-c3ccc(Cl)c(-c4cccc(C(=O)NCCN5CCc6ccc(F)cc65)c4)c3)nn2CCCN2CCC(N3CCCC3=O)CC2)C1` [Example 33, 2′-Chloro-5′-(5-methanesulfonyl-1-{3-[4-(2-oxo-pyrrolidin-1-yl)-piperidin-1-yl]-propyl}-4,5,6,7-tetrahydro-1H-pyrazolo[4,3-c]pyridin-3-yl)-biphenyl-3-carboxylic acid [2-(6-fluoro-2,3-dihydro-indol-1-yl)-ethyl]-amide], the Ki turned out to be 163 nM.
Regarding `CS(=O)(=O)N1CCc2c(c(-c3ccc(Cl)c(-c4cccc(C(=O)NCCNc5ccc(OCC6CCCC6)cc5)c4)c3)nn2CCCN2CCCC2)C1` [Example 5, 2′-Chloro-5′-[5-methanesulfonyl-1-(3-pyrrolidin-1-yl-propyl)-4,5,6,7-tetrahydro-1H-pyrazolo[4,3-c]pyridin-3-yl]-biphenyl-3-carboxylic acid [2-(4-cyclopentylmethoxy-phenylamino)-ethyl]-amide], the Ki turned out to be 60.2 nM.
With `CS(=O)(=O)N1CCc2c(c(-c3ccc(Cl)c(-c4cccc(C(=O)NCc5nc6ccccc6s5)c4)c3)nn2CCCN2CCC(O)C2)C1` (stereo not drawn) [Example 30, 2′-Chloro-5′-{1-[3-(3-hydroxy-pyrrolidin-1-yl)-propyl]-5-methanesulfonyl-4,5,6,7-tetrahydro-1H-pyrazolo[4,3-c]pyridin-3-yl}-biphenyl-3-carboxylic acid (benzothiazol-2-ylmethyl)-amide], the Ki turned out to be 325 nM.
As to `COc1ccc(NCCNC(=O)c2cccc(-c3cc(-c4nn(CCCN5CCCC5)c5c4CN(S(C)(=O)=O)CC5)ccc3Cl)c2)cc1` [Example 1, 2′-Chloro-5′-[5-methanesulfonyl-1-(3-pyrrolidin-1-yl-propyl)-4,5,6,7-tetrahydro-1H-pyrazolo[4,3-c]pyridin-3-yl]-biphenyl-3-carboxylic acid [2-(4-methoxy-phenylamino)-ethyl]-amide], the Ki is 85 nM.
Consider `C[C@@H](NC(=O)c1cccc(-c2cc(-c3nn(CCCN4CCCC4)c4c3CN(S(C)(=O)=O)CC4)ccc2Cl)c1)c1nc(-c2ccccc2)cs1` [Example 24, (R)-2′-Chloro-5′-[5-methanesulfonyl-1-(3-pyrrolidin-1-yl-propyl)-4,5,6,7-tetrahydro-1H-pyrazolo[4,3-c]pyridin-3-yl]-biphenyl-3-carboxylic acid [1-(4-phenyl-thiazol-2-yl)-ethyl]-amide], for which the Ki is 175 nM.
Take `CN(C)S(=O)(=O)c1ccc2c(c1)N(CCNC(=O)c1cccc(-c3cc(-c4nn(CCCN5CCC(O)C5)c5c4CNCC5)ccc3Cl)c1)CC2` (stereo not drawn) [Example 46, 2′-Chloro-5′-{1-[3-(3-hydroxy-pyrrolidin-1-yl)-propyl]-4,5,6,7-tetrahydro-1H-pyrazolo[4,3-c]pyridin-3-yl}-biphenyl-3-carboxylic acid [2-(6-dimethylsulfamoyl-2,3-dihydro-indol-1-yl)-ethyl]-amide]: the Ki was determined as 510 nM.
